Target: Plasma kallikrein (Homo sapiens, UniProt P03952)
Assay: Inhibition of human plasma kallikrein using […] as fluorogenic substrate measured every 2 mins for 12 mins by microplate reader analysis

Chain of Plasma kallikrein (P03952 20-390 limits assumed): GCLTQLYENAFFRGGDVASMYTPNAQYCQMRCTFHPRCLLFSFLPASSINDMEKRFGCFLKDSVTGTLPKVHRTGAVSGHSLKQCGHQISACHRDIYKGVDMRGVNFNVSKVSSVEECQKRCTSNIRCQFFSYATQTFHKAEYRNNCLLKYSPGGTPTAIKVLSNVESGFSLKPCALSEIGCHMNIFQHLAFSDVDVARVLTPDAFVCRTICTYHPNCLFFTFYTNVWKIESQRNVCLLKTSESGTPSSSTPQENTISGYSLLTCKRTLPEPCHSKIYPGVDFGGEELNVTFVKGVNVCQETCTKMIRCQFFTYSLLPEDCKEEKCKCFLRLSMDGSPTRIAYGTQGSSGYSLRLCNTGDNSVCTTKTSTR
Chain of Plasma kallikrein (P03952 391-638 limits assumed): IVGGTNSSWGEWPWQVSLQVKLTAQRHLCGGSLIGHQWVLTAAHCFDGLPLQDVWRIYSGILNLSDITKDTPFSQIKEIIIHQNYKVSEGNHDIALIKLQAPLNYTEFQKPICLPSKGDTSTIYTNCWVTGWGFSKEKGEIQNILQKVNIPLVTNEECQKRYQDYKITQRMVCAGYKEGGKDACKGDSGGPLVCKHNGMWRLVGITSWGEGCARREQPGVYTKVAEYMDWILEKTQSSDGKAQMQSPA

IC50: 0.3 nM
SMILES: Cc1c(Cn2cnc(C(=O)N[C@@H]3CCc4c3ncn4C)c2)ccc(N2CC3CC3C2)c1C#N (stereo partly specified)

— ChEMBL document CHEMBL4828781, “Novel Heteroaromatic Carboxamide Derivatives as Plasma Kallikrein Inhibitors for Treating Diabetic Complications, Ocular Diseases and Edema-Associated Diseases” (ACS Med Chem Lett, 2021)
